The source of these data is US11518823B2, “Photoinitiators for light-curable compositions” (priority 2017, dated 2022).

The nature of data set [1]: photo-DSC monitoring of photopolymerization in hexanediol diacrylate. How it is done: (§1) In the following examples, of the inventive use of compounds of formula (I) as photo-initiators, reaction mixtures containing the respective photoinitiator, the specified liquid monomer and optionally a specified co-intiator were produced and cured for 10 min under a nitrogen atmosphere by exposure to an OmniCure® S2000 mercury lamp having a wave length filter of 320 to 500 nm and an UV light intensity of 1 W/cm^2, while the progress of the reactions was monitored by photo-DSC type NETSCH DSC 204 F1 Phoenix.
(§2) All measurements were carried out at least twice, the respective tables showing the average values for the respective initiators.
(§3) In the tables, RP represents the polymerization rate and is thus an indicator of the reactivity of a system. A high value means that many monomer groups are reacted at the same time and that the curing process is generally shorter. tmax is the time (in s) it takes until maximum heat development is reached and is thus an indicator of how long it takes to reach the gelling point and thus a certain initial solidity. Short times are thus more desirable. t95% is the time (in s) after which 95% of the entire reaction heat have been released and is thus an indicator of the rate at which a reaction occurs, lower values again being advantageous. DBC is the double bond conversion rate calculated based on the reaction heat released during polymerization (in J per g) of the respective formulation. For the conversion rate, it is desirable to achieve values that are as high as possible.
(§4) In all formulations, the respective photoinitiator was used in an equimolar amount with respect to 1 wt % of ethyl pyruvate (1), which was the initiator having the lowest molecular weight, and weighed in accordingly, and co-initiators, if contained, were weighed in equimolar amounts with respect to the respective initiator. Subsequently, 12±0.5 mg of the reaction mixtures were weighed into DSC aluminum pans, and the pans were covered with cover glasses.

Data set [2] is described as follows: photo-DSC monitoring of photopolymerization in dental dimethacrylate mixture. How it is done:
All measurements were carried out at least twice, the respective tables showing the average values for the respective initiators. In the tables, RP represents the polymerization rate and is thus an indicator of the reactivity of a system. A high value means that many monomer groups are reacted at the same time and that the curing process is generally shorter. tmax is the time (in s) it takes until maximum heat development is reached and is thus an indicator of how long it takes to reach the gelling point and thus a certain initial solidity. Short times are thus more desirable. t95% is the time (in s) after which 95% of the entire reaction heat have been released and is thus an indicator of the rate at which a reaction occurs, lower values again being advantageous. DBC is the double bond conversion rate calculated based on the reaction heat released during polymerization (in J per g) of the respective formulation. For the conversion rate, it is desirable to achieve values that are as high as possible. In all formulations, the respective photoinitiator was used in an equimolar amount with respect to 1 wt % of ethyl pyruvate (1), which was the initiator having the lowest molecular weight, and weighed in accordingly, and co-initiators, if contained, were weighed in equimolar amounts with respect to the respective initiator. […] In this group of experiments, the experiments from Examples 1 to 4 and Comparative Example 1 were repeated, using a di-methacrylate mixture from the field of dental engineering as a monomer instead of the diacrylate that had been used above.

Data set [3] is described as follows: photo-DSC monitoring of photopolymerization in divinyl adipate. To be noted: monomer DVA, co-initiator DMAB. How it is done:
In the following examples, of the inventive use of compounds of formula (I) as photo-initiators, reaction mixtures containing the respective photoinitiator, the specified liquid monomer and optionally a specified co-intiator were produced and cured for 10 min under a nitrogen atmosphere by exposure to an OmniCure® S2000 mercury lamp having a wave length filter of 320 to 500 nm and an UV light intensity of 1 W/cm^2, while the progress of the reactions was monitored by photo-DSC type […]1 Phoenix. All measurements were carried out at least twice, the respective tables showing the average values for the respective initiators. In the tables, RP represents the polymerization rate and is thus an indicator of the reactivity of a system. A high value means that many monomer groups are reacted at the same time and that the curing process is generally shorter. tmax is the time (in s) it takes until maximum heat development is reached and is thus an indicator of how long it takes to reach the gelling point and thus a certain initial solidity. Short times are thus more desirable. t95% is the time (in s) after which 95% of the entire reaction heat have been released and is thus an indicator of the rate at which a reaction occurs, lower values again being advantageous. DBC is the double bond conversion rate calculated based on the reaction heat released during polymerization (in J per g) of the respective formulation. For the conversion rate, it is desirable to achieve values that are as high as possible. In all formulations, the respective photoinitiator was used in an equimolar amount with respect to 1 wt % of ethyl pyruvate (1), which was the initiator having the lowest molecular weight, and weighed in accordingly, and co-initiators, if contained, were weighed in equimolar amounts with respect to the respective initiator. Subsequently, 12±0.5 mg of the reaction mixtures were weighed into DSC aluminum pans, and the pans were covered with cover glasses.

Data set [4] is described as follows: photo-DSC of hydrogel formulation with PEG700DA and 50 wt % water. Conditions: without co-initiator. How it is done: as §1, §2, §3, §4
(§5) PBQ was used as a commercially available reference initiator, with MDEA as a co-initiator. The ketoesters ethyl pyruvate (1) and dimethylfurandione (8) can be used as novel initiators without any co-initiator. Due to its longwave absorption maximum (λmax=378 nm instead of 330 nm for compound (1)), compound (8) can also be used using visible light which is harmless for cells.

Data set [5] in a line: longwave absorption maximum. It counts as physicochemical.
Excerpt: as §5

Setting [6] is: monomer HDDA, type I initiators, without any co-initiators (Table 5).
The mark [7] stands for this setting: monomer HDDA, type I, without any co-initiators.
The mark [8] stands for this setting: dental formulation DDM, co-initiator DMAB (Table 12).
Setting [9] is: methacrylates, co-initiator DMAB (Table 10).
Setting [10] is: monomer DDM, co-initiator DMAB (Table 7).
The mark [11] stands for this setting: acrylate (HDDA), co-initiator (Table 10, C8).
Where [12] appears, read: monomer HDDA, co-initiator DMAB.
[13] abbreviates: monomer HDDA, co-initiator MDEA.
Setting [14] is: monomer HDDA, co-initiator shown only as drawing (Table 11).
The mark [15] stands for this setting: monomer HDDA, co-initiator shown only as drawing (Table 13).
Where [16] appears, read: monomer HDDA, co-initiator shown only as drawing, reference is benzophenone/amine system (Table 11).
[17] abbreviates: monomer HDDA, co-initiator thiol.
The mark [18] stands for this setting: monomer HDDA, no co-initiator listed (Table 3).
Where [19] appears, read: HDDA, without any co-initiator (Table 10).

“And” between values parts separate entries of the source, which are not always exact repeats. Equal entries are not always repeated.

Take `CC(C)(Br)C(=O)c1ccccc1` [BD, 2-bromo-2-methyl-1-phenylpropan-1-one, reference compound]: the “RP (polymerization rate)” value in data set [1] (setting [6]) was 146 mmol/L/s. In data set [1] (setting [7]), this molecule showed a DBC of 57.6% and a t95% of 62.5 s.
For the molecule `O=C(c1ccccc1)c1ccccc1` [BP, Benzophenone, reference compound], the DBC in data set [2] (setting [8]) turned out to be 49%; in data set [2] (setting [9]), 49%; in data set [2] (setting [10]), 50%; in data set [1] (setting [11]), 69%; in data set [1] (setting [13]), 69.3%; in data set [1] (setting [14]), 69%. This molecule came in with a DBC in data set [1] (setting [15]) of 69%. In addition, the “RP (polymerization rate)” value was determined as 21 mmol/L/s in data set [2] (setting [8]); 21 mmol/L/s in data set [2] (setting [9]); 21.4 mmol/L/s in data set [2] (setting [10]); 93 mmol/L/s in data set [1] (setting [11]); 96 mmol/L/s in data set [1] (setting [12]); 109 mmol/L/s in data set [1] (setting [13]). Also, the “RP (polymerization rate)” value in data set [1] (setting [15]) and in data set [1] (setting [16]) was 93 mmol/L/s throughout. Further, the t95% in data set [2] (setting [8]) was 143 s; in data set [2] (setting [9]) it was 143 s; in data set [2] (setting [10]), 146.5 s; in data set [1] (setting [11]) it was 69 s; in data set [1] (setting [13]), 77.0 s; in data set [1] (setting [14]), 69 s. This molecule also registered a t95% in data set [1] (setting [15]) of 69 s. For the same molecule, the “DBC (double bond conversion)” value in data set [1] (setting [12]) is 68.9%. Moreover, the “t95% (time after which 95% of reaction heat released)” value in data set [1] (setting [12]) worked out at 85.5 s. In data set [3], this molecule showed an Area of 642 J/g. The molecule further had a DSC in data set [3] of 4.37 mW · mg^−1.
Regarding `CCC(=O)C(=O)OC` [Compound 2, 2-oxobutanoic Acid Methyl Ester], in data set [2] (setting [10]), the DBC was 57%, the “RP (polymerization rate)” value is 71.2 mmol/L/s and the t95% is given as 85.5 s. Further, in data set [1] (setting [12]), the “DBC (double bond conversion)” value amounted to 60.9%, the “RP (polymerization rate)” value was 204 mmol/L/s and the “t95% (time after which 95% of reaction heat released)” value was 40.5 s.
As to `CCOC(=O)C(=O)C(C)C` [Compound 3, 2-oxo-3-Methylbutanoic Acid Ethyl Ester], the DBC in data set [2] (setting [10]) turned out to be 57%; in data set [1] (setting [13]), 65.2%; in data set [1] (setting [17]), 68.0%. The “RP (polymerization rate)” value in data set [2] (setting [10]) is 81.5 mmol/L/s; in data set [1] (monomer HDDA, co-initiator DMAB, listed as E3) it was 241 mmol/L/s and 241.0 mmol/L/s; in data set [1] (setting [13]), 228 mmol/L/s; in data set [1] (monomer HDDA, co-initiator pentaerythritol-tetrakis(3-mercaptopropionate) (thiol)) it was 233.5 mmol/L/s. Besides, the t95% in data set [2] (setting [10]) worked out at 58.5 s; in data set [1] (setting [13]), 56.5 s; in data set [1] (setting [17]), 45.0 s. Further, in data set [1] (setting [12]), the “DBC (double bond conversion)” value is on record as 65.8%. In data set [1] (setting [12]), the “t95% (time after which 95% of reaction heat released)” value stood at 36.6 s.
On to `COC(=O)C(=O)C(C)(C)C` [Compound 4, 2-oxo-3,3-dimethylbutanoic Acid Methyl Ester], for which, in data set [2] (setting [10]), the DBC stood at 51%, the “RP (polymerization rate)” value is 55.9 mmol/L/s and the t95% is on record as 69.5 s. For the same molecule, in data set [1] (setting [12]), the “DBC (double bond conversion)” value was 59.1%, the “RP (polymerization rate)” value came to 170 mmol/L/s and the “t95% (time after which 95% of reaction heat released)” value was determined as 42.5 s. Also, in data set [1] (setting [13]), the DBC came to 64.6%, the “RP (polymerization rate)” value turned out to be 234 mmol/L/s and the t95% came out at 41.0 s. Further, in data set [1] (setting [18]), the DBC came to 64.6%, the “RP (polymerization rate)” value worked out at 214 mmol/L/s and the t95% is recorded as 53.5 s.
As to `CCOC(=O)C(=O)C(C)(C)Br` [Compound 5, 3-bromo-3-methyl-2-oxobutanoic Acid Ethyl Ester], the “RP (polymerization rate)” value in data set [1] (setting [6]) was 239 mmol/L/s. Besides, in data set [1] (setting [7]), the DBC was 62.1% and the t95% is 40.0 s.
As for `CC1(C)COC(=O)C1=O` [Compound 8, 4,4-dimethyldihydrofuran-2,3-dione], the DBC is reported as 54% in data set [2] (setting [9]), 56% in data set [4] and 66% in data set [1] (setting [19]). For the same molecule, the “RP (polymerization rate)” value in data set [2] (setting [9]) worked out at 52 mmol/L/s; in data set [4], 26 mmol/L/s; in data set [1] (setting [19]) it was 189 mmol/L/s. For the same molecule, the results for the t95% in data set [2] (setting [9]), in data set [4] and in data set [1] (setting [19]) were 90 s, 78 s and 58 s, respectively. Further, the “longwave absorption maximum λmax” value in data set [5] was found to be 378 nm.
In the case of `CCOC(=O)CCC(=O)C(=O)OCC` [Compound 9, α-Ketoglutaric Acid Diethyl Ester], in data set [2] (setting [8]), the DBC is listed as 53%, the “RP (polymerization rate)” value came to 66 mmol/L/s and the t95% was found to be 85 s. In data set [1] (setting [14]), the DBC is 67% and the t95% amounted to 58 s. The “RP (polymerization rate)” value in data set [1] (setting [16]) worked out at 201 mmol/L/s.
As to `C=C(C)C(=O)OCCOC(=O)CCC(=O)C(=O)OCCOC(=O)C(=C)C` [Compound 11, α-Ketoglutaric Acid di(hydroxyethylmethacrylate) Ester], in data set [2] (setting [8]), the DBC came to 52%, the “RP (polymerization rate)” value was determined as 57 mmol/L/s and the t95% was found to be 93 s. In data set [1] (setting [14]), this molecule gave a DBC of 64% and a t95% of 53 s. For the same molecule, in data set [1] (setting [16]), the “RP (polymerization rate)” value is 203 mmol/L/s.
For `CCOC(=O)C(=O)C(C)(C)O` [Compound E5], in data set [1] (setting [12]), the “DBC (double bond conversion)” value was 63.1%, the “RP (polymerization rate)” value is 218 mmol/L/s and the “t95% (time after which 95% of reaction heat released)” value was 73.0 s.
As for `CCOC(=O)C(=O)c1ccccc1` [PGO, Ethyl Phenylglyoxylate, reference compound], in data set [1] (setting [18]), the DBC is 75.1%, the “RP (polymerization rate)” value is 204 mmol/L/s and the t95% was found to be 63.0 s.
